Results reported in patent publication US5061794A, “Cephalosporin derivatives, and antibacterial agents” (priority 1986, dated 1991).
In brackets after ≈: the same amount, converted by molar mass.

Legend:
[1] = system: E. coli CSH(RE45); test: microbe, parasite or virus in culture; format: cell-based; conditions: *E. coli CSH(RE45), lactamase-producing strain; 10^6 CFU/ml
Method in brief: (§1)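 MIC in μg/ml, read after 16 h at 37° C. on Mueller Hinton agar carrying graded compound levels; inoculum 10^6 CFU/ml from overnight Mueller Hinton broth.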

[2] = system: E. coli CSH2 (RK1); test: microbe, parasite or virus in culture; format: cell-based; conditions: *E. coli CSH2 (RK1), lactamase-producing strain; 10^6 CFU/ml
Method in brief: as §1

[3] = system: E. cloacae 963; test: in vitro antibacterial activity, agar plate dilution method (MIC); format: cell-based; conditions: Enterobacter cloacae, 16 h; E. cloacae 963; 10^6 CFU/ml; read-out: Minimum Inhibitory Concentration (MIC)
Method in brief: as §1

[4] = system: E. cloacae Nek 39; test: as above; format: cell-based; conditions: 10^6 CFU/ml
Method in brief: as §1

[5] = system: E. coli GN5482; test: as above; format: cell-based; conditions: 10^6 CFU/ml
Method in brief: as §1

[6] = system: E. coli NIHJ JC2; test: as above; format: cell-based; conditions: E. coli NIHJ JC2; 10^6 CFU/ml, 37° C., 16 hours
Method in brief: as §1

[7] = system: K. oxytoca GN10650; test: as above; format: cell-based; conditions: *K. oxytoca GN10650, lactamase-producing strain; 10^6 CFU/ml
Method in brief: as §1

[8] = system: K. pneumoniae No. 42; test: as above; format: cell-based; conditions: *K. pneumoniae No. 42, lactamase-producing strain; 10^6 CFU/ml
Method in brief: as §1

[9] = system: K. pneumoniae PCI-602; test: as above; format: cell-based; conditions: K. pneumoniae PCI-602; 10^6 CFU/ml
Method in brief: as §1

[10] = system: M. morganii GN5407; test: as above; format: cell-based; conditions: *M. morganii GN5407, lactamase-producing strain; 10^6 CFU/ml
Method in brief: as §1

[11] = system: P. vulgaris HX-19; test: as above; format: cell-based; conditions: P. vulgaris HX-19, 10^6 CFU/ml
Method in brief: as §1

[12] = system: P. vulgaris No. 33; test: as above; format: cell-based; conditions: *P. vulgaris No. 33, lactamase-producing strain; 10^6 CFU/ml
Method in brief: as §1

[13] = system: S. aureus 209P NIHJ-JC1; test: as above; format: cell-based; conditions: S. aureus 209P NIHJ-JC1; 10^6 CFU/ml, 37° C., 16 hours
Method in brief: as §1

[14] = system: S. marcescens IAM 1184; test: as above; format: cell-based; conditions: S. marcescens IAM 1184, 10^6 CFU/ml
Method in brief: as §1

[15] = system: S. marcescens No. 16-2; test: as above; format: cell-based; conditions: 10^6 CFU/ml
Method in brief: as §1

[16] = system: Ps. aeruginosa AK 109; test: as above; format: cell-based, Pseudomonas aeruginosa; conditions: Ps. aeruginosa AK 109; 10^6 CFU/ml
Method in brief: as §1

[17] = system: Ps. aeruginosa AKR17; test: as above; format: cell-based, Pseudomonas aeruginosa; conditions: 10^6 CFU/ml
Method in brief: as §1

[18] = system: Ps. aeruginosa IF03445; test: as above; format: cell-based, Pseudomonas aeruginosa; conditions: Ps. aeruginosa IF03445; 10^6 CFU/ml
Method in brief: as §1

[19] = system: Ps. cepacia 23; test: as above; format: cell-based, Pseudomonas cepacia; conditions: Ps. cepacia 23, 10^6 CFU/ml
Method in brief: as §1

[20] = system: A. calcoaceticus No. 4; test: as above; format: cell-based, Acinetobacter calcoaceticus; conditions: 10^6 CFU/ml
Method in brief: as §1

SMILES	Minimum Inhibitory Concentration (MIC) [1] [µg/mL]	Minimum Inhibitory Concentration (MIC) [2] [µg/mL]	MIC [3] [µg/mL]	Minimum Inhibitory Concentration (MIC) [6] [µg/mL]	Minimum Inhibitory Concentration (MIC) [7] [µg/mL]	Minimum Inhibitory Concentration (MIC) [8] [µg/mL]	Minimum Inhibitory Concentration (MIC) [9] [µg/mL]	Minimum Inhibitory Concentration (MIC) [10] [µg/mL]	Minimum Inhibitory Concentration (MIC) [12] [µg/mL]	Minimum Inhibitory Concentration (MIC) [13] [µg/mL]	Minimum Inhibitory Concentration (MIC) [16] [µg/mL]	Minimum Inhibitory Concentration (MIC) [18] [µg/mL]	other results
Nc1nc(C(=NOC(C(=O)O)c2ccc(O)c(O)c2)C(=O)NC2C(=O)N3C(C(=O)O)=C(CSc4nnc(-c5ccc(O)c(O)c5)s4)CSC23)cs1 (single isomer, unassigned) [Example 38 DB, disodium 7β-{2-(2-aminothiazol-4-yl)-2-(α-carboxylate-3,4-dihydroxybenzyloxyimino)acetamido]-3-[5-(3,4-dihydroxyphenyl)-1,3,4-thiadiazol-2-yl]thiomethyl-3-cephem-4-carboxylate]	0.0125	0.025	0.2	0.78	0.1	0.1	< 0.006	0.2	0.1	1.56	0.78	3.12	Minimum Inhibitory Concentration (MIC) ([4]; *E. cloacae Nek 39, lactamase-producing strain): 0.39 µg/mL; Minimum Inhibitory Concentration (MIC) ([5]; *E. coli GN5482, lactamase-producing strain): 0.78 µg/mL; MIC ([11]; Proteus vulgaris, HX19, 16 h, read-out: Minimum Inhibitory Concentration (MIC)): 0.025 µg/mL; Minimum Inhibitory Concentration (MIC) [14]: 0.1 µg/mL; Minimum Inhibitory Concentration (MIC) ([15]; *S. marcescens No. 16-2, lactamase-producing strain): 6.25 µg/mL; MIC ([17]; Pseudomonas aeruginosa, AKR17, 16 h, read-out: Minimum Inhibitory Concentration (MIC), Ps. aeruginosa AKR17): 1.56 µg/mL; Minimum Inhibitory Concentration (MIC) [19]: < 0.006 µg/mL; Minimum Inhibitory Concentration (MIC) ([20]; A. calcoaceticus No. 4): 0.05 µg/mL
Nc1nc(C(=NOC(C(=O)O)c2ccccc2)C(=O)NC2C(=O)N3C(C(=O)O)=C(CSc4nc(C(=O)O)c(-c5ccc(O)c(O)c5)s4)CSC23)cs1 (single isomer, unassigned) [Example 51 DA]	0.1	0.05	0.2 (≈ 0.255 µM)	3.12	0.1	0.2	0.0125	0.2	0.39	100	1.56	1.56	MIC ([4]; Enterobacter cloacae, NEK39, 16 h, read-out: Minimum Inhibitory Concentration (MIC), *E. cloacae Nek 39, lactamase-producing strain): 0.1 µg/mL (≈ 0.127 µM); MIC ([5]; Escherichia coli, GN5482, 16 h, read-out: Minimum Inhibitory Concentration (MIC), *E. coli GN5482, lactamase-producing strain): 1.56 µg/mL (≈ 1.99 µM); Minimum Inhibitory Concentration (MIC) [11]: 0.2 µg/mL; MIC ([14]; Serratia marcescens, IAM1184, 16 h, read-out: Minimum Inhibitory Concentration (MIC)): 0.1 µg/mL (≈ 0.127 µM); MIC ([15]; Serratia marcescens, NO.162, 16 h, read-out: Minimum Inhibitory Concentration (MIC), *S. marcescens No. 16-2, lactamase-producing strain): 1.56 µg/mL (≈ 1.99 µM); Minimum Inhibitory Concentration (MIC) ([17]; Ps. aeruginosa AKR17): 1.56 µg/mL; MIC ([19]; Burkholderia cepacia, 16 h, read-out: Minimum Inhibitory Concentration (MIC)): < 0.006 µg/mL; MIC ([20]; Acinetobacter calcoaceticus, NO.4, 16 h, read-out: Minimum Inhibitory Concentration (MIC), A. calcoaceticus No. 4): 0.1 µg/mL (≈ 0.127 µM)
